The source of these data is patent US12110289B2, “Heterocyclic compounds, preparation methods and uses thereof” (InventisBio Co., Ltd., priority 2020, dated 2024).

Each structure is given as a SMILES string.

The subject of one assay is Lung cancer cell line NCI-H358 containing KRas G12C mutation. Put plainly: Assay for cell proliferation (Cell-titer Glo, 5 days). It is filed as cell-based, human. The conditions noted are these: Homo sapiens, NCI-H358, 120 h, NCI-H358, 5 days, Cell-titer Glo; read-out: IC50 (nM), Inhibition of NCI-H358 Cell Proliferation. How it is done:
One hundred fifty microliter (150 μL) of media containing 2000 cells per well were seeded into each well of a 96-well culture plate and left to attach overnight in a 37° C. incubator with 5% CO2. Diluted compounds of 0.75 μL for each well were added by liquid handler at a final concentration of 0.5% DMSO. Cells were treated for 5 days in the incubator. Cell-titer Glo (CTG) kit (Promega) was used to assess cell proliferation. Of note, 120 μL of CTG reagent was added to each well and incubated at RT for 10 minutes.
`C=CC(=O)N1C[C@H](C)N(c2nc(=O)n(-c3c(F)cc4c(ncn4C)c3C3CC3)c3nc(-c4c(N)cccc4F)c(F)cc23)C[C@H]1C` (atropisomer, axis not shown) [Compound 179]: the IC50 came to 386 nM.

Turning to `C=CC(=O)N1CCN(c2nc(=O)n(-c3c(C)nc4c(ncn4C)c3C(C)C)c3nc(-c4c(O)cccc4F)c(F)cc23)[C@@H](C)C1` (single isomer, unassigned) [Compound 163], the IC50 came out at 44.2 nM.

For `C=CC(=O)N1C[C@H](C)N(c2nc(=O)n(-c3c(C(C)C)ncnc3C(C)C)c3nc(-c4c(N)cccc4F)c(F)cc23)C[C@H]1C` [4-((2S,5R)-4-acryloyl-2,5-dimethylpiperazin-1-yl)-7-(2-amino-6-fluorophenyl)-1-(4,6-diisopropylpyrimidin-5-yl)-6-fluoropyrido[2,3-d]pyrimidin-2(1H)-one], the IC50 was 5.3 nM.

The same assay, now with this note: NCI-H358, 5 days, Cell-titer Glo; read-out: IC50 (nM), Inhibition of NCI-H358 Cell Proliferation.
With `C=CC(=O)N1CCN(c2nc(=O)n(-c3c(C)cc4c(ncn4C)c3C(C)C)c3nc(-c4c(N)cccc4F)c(Cl)cc23)[C@@H](C)C1` (atropisomer, axis not shown) [Compound 151], the IC50 came to 16.2 nM.

Consider `C=CC(=O)N1CCN(c2nc(=O)n(-c3c(C)cc4c(ncn4C)c3C(C)C)c3nc(-c4ccccc4F)c(Cl)cc23)[C@@H](C)C1` (single isomer, unassigned) [Compound 141], for which the IC50 amounted to 38 nM.

Regarding `C=CC(=O)N1CCN(c2nc(=O)n(-c3c(C)cc4c(ncn4C)c3C(C)C)c3nc(-c4ccccc4F)c(Cl)cc23)[C@@H](C)C1` (single isomer, unassigned) [Compound 142], the IC50 was determined as 2.2 nM.

As to `C=CC(=O)N1CCN(c2nc(=O)n(-c3c(F)cc4c(ncn4C)c3C(C)C)c3nc(-c4c(N)cccc4F)c(F)cc23)[C@@H](C)C1` (single isomer, unassigned) [Compound 143], the IC50 came to 1300 nM.

Take `C=CC(=O)N1CCN(c2nc(=O)n(-c3c(F)cc4c(ncn4C)c3C(C)C)c3nc(-c4c(N)cccc4F)c(F)cc23)[C@@H](C)C1` (single isomer, unassigned) [Compound 144]: the IC50 amounted to 2.5 nM.

Take `C=CC(=O)N1CCN(c2nc(=O)n(-c3c(C)cc4c(ncn4C)c3C(C)C)c3nc(-c4c(N)cccc4F)c(F)cc23)[C@@H](C)C1` (single isomer, unassigned) [Compound 147]: the IC50 was determined as 2.7 nM.

Turning to `C=CC(=O)N1CCN(c2nc(=O)n(-c3c(C)cc4c(ncn4C)c3C(C)C)c3nc(-c4c(N)cccc4F)c(F)cc23)[C@@H](C)C1` (single isomer, unassigned) [Compound 148], the IC50 was 78.6 nM.

For `C=CC(=O)N1C[C@H](C)N(c2nc(=O)n(-c3c(C)cc4c(ncn4C)c3C(C)C)c3nc(-c4c(O)cccc4F)c(Cl)cc23)C[C@H]1C` (single isomer, unassigned) [Compound 149], the IC50 came to 12.8 nM.

In the case of `C=CC(=O)N1C[C@H](C)N(c2nc(=O)n(-c3c(C)cc4c(ncn4C)c3C(C)C)c3nc(-c4c(O)cccc4F)c(Cl)cc23)C[C@H]1C` (single isomer, unassigned) [Compound 150], the IC50 came out at 1.1 nM.

Regarding `C=CC(=O)N1C[C@H](C)N(c2nc(=O)n(-c3c(C)cc4c(ncn4C)c3C(C)C)c3nc(-c4c(N)cccc4F)c(F)cc23)C[C@H]1C` (single isomer, unassigned) [Compound 153], the IC50 was 172 nM.

On to `C=CC(=O)N1C[C@H](C)N(c2nc(=O)n(-c3c(C)cc4c(ncn4C)c3C(C)C)c3nc(-c4c(N)cccc4F)c(F)cc23)C[C@H]1C` (single isomer, unassigned) [Compound 154], for which the IC50 was 1.4 nM.

As to `C=CC(=O)N1CCN(c2nc(=O)n(-c3c(C)cc4c(ncn4C)c3C(C)C)c3nc(-c4c(O)cccc4F)c(F)cc23)[C@@H](C)C1` (single isomer, unassigned) [Compound 155], the IC50 turned out to be 60 nM.

Take `C=CC(=O)N1CCN(c2nc(=O)n(-c3c(C)cc4c(ncn4C)c3C(C)C)c3nc(-c4c(O)cccc4F)c(F)cc23)[C@@H](C)C1` (single isomer, unassigned) [Compound 156]: the IC50 was 6.9 nM.

As for `C=CC(=O)N1C[C@H](C)N(c2nc(=O)n(-c3c(C)cc4c(ncn4C)c3C(C)C)c3nc(-c4ccccc4F)c(Cl)cc23)C[C@H]1C` (single isomer, unassigned) [Compound 159], the IC50 was found to be 64.2 nM.

`C=CC(=O)N1C[C@H](C)N(c2nc(=O)n(-c3c(C)cc4c(ncn4C)c3C(C)C)c3nc(-c4ccccc4F)c(Cl)cc23)C[C@H]1C` (single isomer, unassigned) [Compound 160]: the IC50 worked out at 1.3 nM.

Take `C=CC(=O)N1C[C@H](C)N(c2nc(=O)n(-c3c(C)cc4c(ncn4C)c3C(C)C)c3nc(-c4c(N)cccc4F)c(Cl)cc23)C[C@H]1C` (single isomer, unassigned) [Compound 161]: the IC50 worked out at 32.4 nM.

For `C=CC(=O)N1C[C@H](C)N(c2nc(=O)n(-c3c(C)cc4c(ncn4C)c3C(C)C)c3nc(-c4c(N)cccc4F)c(Cl)cc23)C[C@H]1C` (single isomer, unassigned) [Compound 162], the IC50 is 0.5 nM.

As for `C=CC(=O)N1C[C@H](C)N(c2nc(=O)n(-c3c(C)nc4c(ncn4C)c3C(C)C)c3nc(-c4c(N)cccc4F)c(F)cc23)C[C@H]1C` (single isomer, unassigned) [Compound 164], the IC50 is greater than 1000 nM.

`C=CC(=O)N1C[C@H](C)N(c2nc(=O)n(-c3c(C)nc4c(ncn4C)c3C(C)C)c3nc(-c4c(N)cccc4F)c(F)cc23)C[C@H]1C` (single isomer, unassigned) [Compound 165]: the IC50 was determined as 157 nM.

Take `C=CC(=O)N1C[C@H](C)N(c2nc(=O)n(-c3c(C)nc4c(ncn4C)c3C(C)C)c3nc(-c4ccccc4F)c(Cl)cc23)C[C@H]1C` (single isomer, unassigned) [Compound 167]: the IC50 was 0.8 nM.

For the compound `C=CC(=O)N1C[C@H](C)N(c2nc(=O)n(-c3c(C)nc4c(ncn4C)c3C(C)C)c3nc(-c4ccccc4F)c(Cl)cc23)C[C@H]1C` (single isomer, unassigned) [Compound 168], the IC50 was 20.3 nM.

Regarding `C=CC(=O)N1C[C@H](C)N(c2nc(=O)n(-c3c(F)cc4c(ncn4C)c3C(C)C)c3nc(-c4ccccc4F)c(Cl)cc23)C[C@H]1C` (single isomer, unassigned) [Compound 169], the IC50 came out at 119 nM.

Take `C=CC(=O)N1C[C@H](C)N(c2nc(=O)n(-c3c(F)cc4c(ncn4C)c3C(C)C)c3nc(-c4ccccc4F)c(Cl)cc23)C[C@H]1C` (single isomer, unassigned) [Compound 170]: the IC50 stood at 1 nM.

As for `C=CC(=O)N1C[C@H](C)N(c2nc(=O)n(-c3c(C)nc4c(ncn4C)c3C(C)C)c3nc(-c4c(O)cccc4F)c(Cl)cc23)C[C@H]1C` (single isomer, unassigned) [Compound 171], the IC50 worked out at 15.6 nM.

For the compound `C=CC(=O)N1C[C@H](C)N(c2nc(=O)n(-c3c(C)nc4c(ncn4C)c3C(C)C)c3nc(-c4c(O)cccc4F)c(Cl)cc23)C[C@H]1C` (single isomer, unassigned) [Compound 172], the IC50 stood at 1.2 nM.

For `C=CC(=O)N1C[C@H](C)N(c2nc(=O)n(-c3c(F)cc4c(ncn4C)c3C(C)C)c3nc(-c4c(N)cccc4F)c(Cl)cc23)C[C@H]1C` (single isomer, unassigned) [Compound 173], the IC50 turned out to be 23.5 nM.

In the case of `C=CC(=O)N1C[C@H](C)N(c2nc(=O)n(-c3c(F)cc4c(ncn4C)c3C(C)C)c3nc(-c4c(N)cccc4F)c(Cl)cc23)C[C@H]1C` (single isomer, unassigned) [Compound 174], the IC50 stood at 0.2 nM.

For `C=CC(=O)N1C[C@H](C)N(c2nc(=O)n(-c3c(C)nc4c(ncn4C)c3C(C)C)c3nc(-c4c(N)cccc4F)c(Cl)cc23)C[C@H]1C` (single isomer, unassigned) [Compound 175], the IC50 was found to be 16.1 nM.

Turning to `C=CC(=O)N1C[C@H](C)N(c2nc(=O)n(-c3c(C)nc4c(ncn4C)c3C(C)C)c3nc(-c4c(N)cccc4F)c(Cl)cc23)C[C@H]1C` (single isomer, unassigned) [Compound 176], the IC50 came to 0.5 nM.

For the compound `C=CC(=O)N1C[C@H](C)N(c2nc(=O)n(-c3c(F)cc4c(ncn4C)c3C3CC3)c3nc(-c4c(N)cccc4F)c(Cl)cc23)C[C@H]1C` (single isomer, unassigned) [Compound 177], the IC50 worked out at 73.7 nM.

As for `C=CC(=O)N1C[C@H](C)N(c2nc(=O)n(-c3c(F)cc4c(ncn4C)c3C3CC3)c3nc(-c4c(N)cccc4F)c(Cl)cc23)C[C@H]1C` (single isomer, unassigned) [Compound 178], the IC50 came to 0.9 nM.

On to `C=CC(=O)N1C[C@H](C)N(c2nc(=O)n(-c3c(C(C)C)nc4c(ncn4C)c3C)c3nc(-c4ccccc4F)c(Cl)cc23)C[C@H]1C` (single isomer, unassigned) [Compound 182], for which the IC50 is 1.7 nM.

Consider `C=CC(=O)N1C[C@H](C)N(c2nc(=O)n(-c3c(C(C)C)nc4c(ncn4C)c3C)c3nc(-c4c(N)cccc4F)c(Cl)cc23)C[C@H]1C` (single isomer, unassigned) [Compound 183], for which the IC50 turned out to be 27.4 nM.

In the case of `C=CC(=O)N1C[C@H](C)N(c2nc(=O)n(-c3c(C(C)C)nc4c(ncn4C)c3C)c3nc(-c4c(N)cccc4F)c(Cl)cc23)C[C@H]1C` (single isomer, unassigned) [Compound 184], the IC50 worked out at 0.2 nM.

On to `C=CC(=O)N1C[C@H](C)N(c2nc(=O)n(-c3c(C(C)C)nc4c(ncn4C)c3C)c3nc(-c4c(O)cccc4F)c(Cl)cc23)C[C@H]1C` (single isomer, unassigned) [Compound 185], for which the IC50 is 21.7 nM.

On to `C=CC(=O)N1C[C@H](C)N(c2nc(=O)n(-c3c(C(C)C)nc4c(ncn4C)c3C)c3nc(-c4c(O)cccc4F)c(Cl)cc23)C[C@H]1C` (single isomer, unassigned) [Compound 186], for which the IC50 came to 0.9 nM.
